Laboratory results taken from BindingDB's records for doi:10.1016/j.bmcl.2004.02.025 (Universidade Federal De Minas Gerais, 2004).

Experiment: Inhibitory concentration against glyceraldehyde-3-phosphate dehydrogenase was determined as log 1/IC50
With `CC1(C)C=Cc2c(ccc3ccc(=O)oc23)O1` the IC50 was 123 µM. `O=c1oc2ccc(/N=C/c3ccco3)cc2cc1-c1ccc2c(c1)OCO2` showed an IC50 of 56.2 µM. With `CC(=O)Oc1cccc(-c2cc3cc(OC(C)=O)ccc3oc2=O)c1` the IC50 was 17 µM. With `O=c1oc2c(O)cccc2cc1-c1ccc2c(c1)OCO2` the IC50 was 30.9 µM. In the case of `COc1c2c(cc3oc(=O)ccc13)OCC2`, the IC50 is reported as 347 µM. Work on `O=c1oc2ccccc2cc1-c1cccc(O)c1` yielded an IC50 of 67.6 µM. Work on `C=C(C)[C@H]1Cc2cc3ccc(=O)oc3cc2O1` yielded an IC50 of 145 µM. In the case of `C=C(C)[C@@H]1Cc2c(cc(O)c3ccc(=O)oc23)O1`, the IC50 is reported as 191 µM. Work on `CC(=O)Oc1ccc2oc(=O)c(-c3ccc4c(c3)OCO4)cc2c1` yielded an IC50 of 64.6 µM. With `CC(=O)Oc1ccc2oc(=O)c(-c3ccccc3)cc2c1` the IC50 was 123 µM. `C=C(C)[C@H]1O[C@@H]1c1c(O)ccc2ccc(=O)oc12` showed an IC50 of 129 µM. For `CC1=C2c3c(ccc4ccc(=O)oc34)OCC2OC1=O` (centres undefined), the IC50 was 74.1 µM. For `CC(=O)Oc1ccc(-c2cc3cc(OC(C)=O)ccc3oc2=O)cc1`, the IC50 was 52.5 µM. `C=CC(C)(C)c1cc2ccc(O)cc2oc1=O` showed an IC50 of 162 µM. `COc1cccc(-c2cc3cc(OC(C)=O)ccc3oc2=O)c1` gave an IC50 of 85.1 µM. For `O=c1oc2ccc(/N=C/c3ccc[nH]3)cc2cc1-c1ccc2c(c1)OCO2`, the IC50 was 56.2 µM. Work on `O=c1ccc2ccccc2o1` [2H-chromen-2-one] yielded an IC50 of 692 µM. In the case of `O=c1oc2ccccc2cc1-c1ccc(O)cc1` [3-(4-Hydroxy-phenyl)-chromen-2-one], the IC50 is reported as 38.9 µM. For `CC(=O)Oc1ccc(-c2cc3cc(OC(C)=O)c(OC(C)=O)cc3oc2=O)cc1OC(C)=O` [6,7-diacetoxy-3-[30,40-diacetoxyphenyl]-coumarin], the IC50 was 17.8 µM. In the case of `COc1cc2ccc(=O)oc2cc1O` [7-hydroxy-6-methoxy-2H-chromen-2-one], the IC50 is reported as 257 µM. For `CC1(C)C=Cc2cc3ccc(=O)oc3cc2O1` [8,8-Dimethyl-8H-pyrano[3,2-g]chromen-2-one], the IC50 was 195 µM. Work on `COc1ccc2ccc(=O)oc2c1CC=C(C)C` [osthole] yielded an IC50 of 209 µM. Work on `O=c1ccc2ccc(O)cc2o1` [umbelliferone] yielded an IC50 of 617 µM.

Experiment: as above
Remark: another data set of the same source
Work on `C=CC(C)(C)c1cc2cc3c(cc2oc1=O)O[C@H](C(C)(C)O)C3` [Chalepin] yielded an IC50 of 55 µM.

Experiment: Inhibitory concentration of compound against glyceraldehyde-3-phosphate dehydrogenase was determined
`CCOC(=O)c1cn([C@@H]2O[C@H](COC(=O)c3ccccc3)[C@@H](OC(=O)c3ccccc3)[C@H]2OC(=O)c2ccccc2)c2ccc(Cl)cc2c1=O` showed an IC50 of 29 µM. In the case of `COc1ccc(-n2nc3c4ccccc4n([C@@H]4O[C@H](COC(=O)c5ccccc5)[C@@H](OC(=O)c5ccccc5)[C@H]4OC(=O)c4ccccc4)cc-3c2=O)cc1` [Adenosine analogue], the IC50 is reported as 45 µM. With `COc1cccc(C(=O)NC2C(O)[C@@H](COP(=O)([O-])OP(=O)(O)OC[C@H]3O[C@@H]([n+]4ccc(C(N)=O)cc4)C(O)C3O)O[C@H]2n2cnc3c(NCc4cccc5ccccc45)ncnc32)c1` (some centres undefined) [Adenosine analogue] the IC50 was 0.1 µM. `COc1cccc(C(=O)NC2C(O)[C@@H](CO)O[C@H]2n2cnc3c(NCc4cccc5ccccc45)ncnc32)c1` (stereo partly drawn) [N-((2R,5R)-4-Hydroxy-5-hydroxymethyl-2-{6-[(naphthalen-1-ylmethyl)-amino]-purin-9-yl}-tetrahydro-furan-3-yl)-3-methoxy-benzamide] showed an IC50 of 12 µM. `COc1cccc(C(=O)NC2C(O)[C@@H](COP(=O)(O)O)O[C@H]2n2cnc3c(NCc4cccc5ccccc45)ncnc32)c1` (stereo partly drawn) [Phosphoric acid mono-((2R,5R)-3-hydroxy-4-(3-methoxy-benzoylamino)-5-{6-[(naphthalen-1-ylmethyl)-amino]-purin-9-yl}-tetrahydro-furan-2-ylmethyl) ester] showed an IC50 of 5 µM.
